Data on three molecules can be found in ChEMBL document CHEMBL4837249, “Discovery of Potent Antiallergic Agents Based on an o-Aminopyridinyl Alkynyl Scaffold” (J Med Chem, 2021).

Data set [1] addresses Tyrosine-protein kinase Fyn (Homo sapiens, UniProt P06241). Kind of data set: Inhibition of human full length recombinant Fyn by radiometric scintillation counting analysis.
For data set [2], the target named is Tyrosine-protein kinase HCK (Homo sapiens, UniProt P08631). Nature of the data set: Inhibition of human recombinant HCK (230 to 497) by radiometric scintillation counting analysis.
Tyrosine-protein kinase HCK, sequence (P08631 whole entry): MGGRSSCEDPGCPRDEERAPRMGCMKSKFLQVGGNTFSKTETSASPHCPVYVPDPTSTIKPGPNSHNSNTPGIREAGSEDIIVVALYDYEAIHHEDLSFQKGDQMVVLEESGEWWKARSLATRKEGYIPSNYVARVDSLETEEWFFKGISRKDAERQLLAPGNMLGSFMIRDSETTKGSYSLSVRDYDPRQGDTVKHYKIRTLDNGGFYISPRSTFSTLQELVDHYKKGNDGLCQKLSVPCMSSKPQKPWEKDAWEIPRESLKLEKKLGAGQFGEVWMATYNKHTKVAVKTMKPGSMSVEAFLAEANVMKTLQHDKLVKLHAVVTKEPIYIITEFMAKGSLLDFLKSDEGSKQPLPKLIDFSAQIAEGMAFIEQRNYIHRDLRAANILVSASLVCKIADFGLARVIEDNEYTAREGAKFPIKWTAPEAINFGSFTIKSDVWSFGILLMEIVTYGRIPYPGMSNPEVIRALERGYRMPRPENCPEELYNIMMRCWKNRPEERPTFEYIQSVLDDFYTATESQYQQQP
The nature of data set [3]: Therapeutic index, ratio of CC50 for rat RBL2H3 cells to IC50 for Antiallergic activity against anti-DNP-IgE sensitized rat RBL-2H3 cells. To be noted: read-out: TI. It counts as toxicity.
The target in data set [4] is T1, Macrophage colony-stimulating factor 1 receptor (Homo sapiens, UniProt P07333). Nature of the data set: Inhibition of human recombinant CSF1R using ATP/Ulight-TK peptide incubated for 15 mins.
T1 sequence (P07333 whole entry): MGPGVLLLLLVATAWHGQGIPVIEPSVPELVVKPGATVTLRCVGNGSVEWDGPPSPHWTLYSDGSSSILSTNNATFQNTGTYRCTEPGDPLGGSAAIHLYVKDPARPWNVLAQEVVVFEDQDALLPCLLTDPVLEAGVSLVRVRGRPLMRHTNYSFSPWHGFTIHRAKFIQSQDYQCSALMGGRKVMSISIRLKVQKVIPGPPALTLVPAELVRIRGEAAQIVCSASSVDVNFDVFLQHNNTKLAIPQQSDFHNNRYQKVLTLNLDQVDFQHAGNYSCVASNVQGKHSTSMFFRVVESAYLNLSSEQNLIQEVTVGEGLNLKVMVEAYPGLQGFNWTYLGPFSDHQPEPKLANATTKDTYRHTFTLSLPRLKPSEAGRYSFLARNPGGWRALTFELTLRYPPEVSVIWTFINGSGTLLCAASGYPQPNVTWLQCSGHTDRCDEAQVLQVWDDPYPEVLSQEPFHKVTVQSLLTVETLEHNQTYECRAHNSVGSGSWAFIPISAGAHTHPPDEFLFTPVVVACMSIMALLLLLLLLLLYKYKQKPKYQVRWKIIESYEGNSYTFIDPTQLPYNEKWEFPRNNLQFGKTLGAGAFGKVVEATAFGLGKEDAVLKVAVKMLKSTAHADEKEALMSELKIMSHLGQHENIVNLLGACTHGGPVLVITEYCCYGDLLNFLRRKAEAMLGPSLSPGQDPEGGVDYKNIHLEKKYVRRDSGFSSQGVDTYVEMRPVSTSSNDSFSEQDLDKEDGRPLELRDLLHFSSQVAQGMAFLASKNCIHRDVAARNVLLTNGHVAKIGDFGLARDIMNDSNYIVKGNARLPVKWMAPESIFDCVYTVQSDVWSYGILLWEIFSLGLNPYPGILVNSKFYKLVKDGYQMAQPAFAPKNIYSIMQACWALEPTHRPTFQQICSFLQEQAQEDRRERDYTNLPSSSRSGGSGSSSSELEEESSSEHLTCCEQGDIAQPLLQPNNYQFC
A further data set concerns RBL-2H3. Nature of the data set: Antiallergic activity against anti-DNP-IgE sensitized rat RBL-2H3 cells assessed as […] of degranulation by measuring beta-hexosaminidase release using P-nitrophenyl-N-acetyl-D-glucosamide as substrate at 1 uM measured after 1 hr by microplate reader relative to control. It counts as functional.
The target in data set [5] is T2, Inhibitor of nuclear factor kappa-B kinase subunit alpha (Homo sapiens) (UniProt O15111).
T2 sequence (whole entry): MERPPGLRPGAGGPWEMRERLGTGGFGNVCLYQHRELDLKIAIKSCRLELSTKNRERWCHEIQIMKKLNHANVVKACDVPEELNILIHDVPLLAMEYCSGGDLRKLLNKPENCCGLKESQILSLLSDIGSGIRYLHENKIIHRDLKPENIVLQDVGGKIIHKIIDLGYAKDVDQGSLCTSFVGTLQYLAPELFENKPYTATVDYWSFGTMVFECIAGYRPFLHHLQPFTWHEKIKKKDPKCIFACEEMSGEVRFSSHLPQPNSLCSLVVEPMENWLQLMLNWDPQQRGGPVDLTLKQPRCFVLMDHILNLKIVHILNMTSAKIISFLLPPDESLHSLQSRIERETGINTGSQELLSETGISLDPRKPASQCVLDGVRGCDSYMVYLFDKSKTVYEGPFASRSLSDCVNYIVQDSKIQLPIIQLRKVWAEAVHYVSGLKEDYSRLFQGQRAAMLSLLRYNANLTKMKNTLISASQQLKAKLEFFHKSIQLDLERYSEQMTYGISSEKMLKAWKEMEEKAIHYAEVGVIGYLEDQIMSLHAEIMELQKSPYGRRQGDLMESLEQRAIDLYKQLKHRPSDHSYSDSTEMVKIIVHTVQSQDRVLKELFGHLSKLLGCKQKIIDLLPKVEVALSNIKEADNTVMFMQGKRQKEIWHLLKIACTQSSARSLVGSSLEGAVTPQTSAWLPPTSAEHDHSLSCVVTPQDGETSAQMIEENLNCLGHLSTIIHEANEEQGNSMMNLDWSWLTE
Nature of the data set: Inhibition of human full length recombinant IKKalpha at 5 nM by radiometric scintillation counting analysis relative to control.

Data set [6] deals with Tyrosine-protein kinase BTK (Homo sapiens) (UniProt Q06187). Kind of data set: Inhibition of human full length recombinant BTK at 50 nM by radiometric scintillation counting analysis relative to control.
Data set [7] addresses T2, Inhibitor of nuclear factor kappa-B kinase subunit alpha (Homo sapiens). Nature of the data set: Inhibition of human full length recombinant IKKalpha at 50 nM by radiometric scintillation counting analysis relative to control.
Data set [8] addresses T3, Tyrosine-protein kinase ITK/TSK (Homo sapiens) (UniProt Q08881).
T3 sequence (whole entry): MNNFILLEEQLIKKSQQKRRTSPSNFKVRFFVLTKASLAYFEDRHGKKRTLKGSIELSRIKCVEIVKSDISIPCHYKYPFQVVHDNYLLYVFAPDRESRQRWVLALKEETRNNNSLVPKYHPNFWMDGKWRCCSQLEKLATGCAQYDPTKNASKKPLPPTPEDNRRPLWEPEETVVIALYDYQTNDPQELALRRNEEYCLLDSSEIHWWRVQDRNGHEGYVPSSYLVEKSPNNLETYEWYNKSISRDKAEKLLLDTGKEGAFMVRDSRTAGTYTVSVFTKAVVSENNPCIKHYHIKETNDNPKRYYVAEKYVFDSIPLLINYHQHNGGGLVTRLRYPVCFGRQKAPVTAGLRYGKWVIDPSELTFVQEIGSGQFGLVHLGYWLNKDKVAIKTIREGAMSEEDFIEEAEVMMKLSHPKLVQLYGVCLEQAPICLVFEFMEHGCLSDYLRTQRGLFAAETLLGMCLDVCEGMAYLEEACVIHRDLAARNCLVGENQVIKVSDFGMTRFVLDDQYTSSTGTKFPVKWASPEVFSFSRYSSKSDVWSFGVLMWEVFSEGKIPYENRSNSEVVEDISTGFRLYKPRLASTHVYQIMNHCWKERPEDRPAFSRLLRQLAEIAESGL
Nature of the data set: Inhibition of human recombinant ITK (352 to 617) at 50 nM by radiometric scintillation counting analysis relative to control.

Data set [9] deals with Tyrosine-protein kinase Blk (Homo sapiens, UniProt P51451). Kind of data set: Inhibition of human full length recombinant BLK by radiometric scintillation counting analysis.
Tyrosine-protein kinase Blk, sequence (P51451 whole entry): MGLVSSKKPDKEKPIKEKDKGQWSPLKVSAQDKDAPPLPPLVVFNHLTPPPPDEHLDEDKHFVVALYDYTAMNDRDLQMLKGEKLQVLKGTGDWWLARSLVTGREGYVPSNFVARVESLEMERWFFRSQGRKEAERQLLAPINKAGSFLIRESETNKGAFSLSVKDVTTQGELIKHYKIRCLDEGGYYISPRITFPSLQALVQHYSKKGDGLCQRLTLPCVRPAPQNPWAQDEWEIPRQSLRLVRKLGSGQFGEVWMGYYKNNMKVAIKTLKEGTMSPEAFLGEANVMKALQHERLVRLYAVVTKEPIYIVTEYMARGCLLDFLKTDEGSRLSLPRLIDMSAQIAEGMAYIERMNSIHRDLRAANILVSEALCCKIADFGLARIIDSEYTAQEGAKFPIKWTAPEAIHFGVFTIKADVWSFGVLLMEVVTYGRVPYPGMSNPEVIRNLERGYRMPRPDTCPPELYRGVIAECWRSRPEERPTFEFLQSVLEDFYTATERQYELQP
In data set [10] the target is Tyrosine-protein kinase Fgr (Homo sapiens, UniProt P09769). Kind of data set: Inhibition of human recombinant FGR (456 to 770) radiometric scintillation counting analysis.
Tyrosine-protein kinase Fgr, sequence (P09769 whole entry): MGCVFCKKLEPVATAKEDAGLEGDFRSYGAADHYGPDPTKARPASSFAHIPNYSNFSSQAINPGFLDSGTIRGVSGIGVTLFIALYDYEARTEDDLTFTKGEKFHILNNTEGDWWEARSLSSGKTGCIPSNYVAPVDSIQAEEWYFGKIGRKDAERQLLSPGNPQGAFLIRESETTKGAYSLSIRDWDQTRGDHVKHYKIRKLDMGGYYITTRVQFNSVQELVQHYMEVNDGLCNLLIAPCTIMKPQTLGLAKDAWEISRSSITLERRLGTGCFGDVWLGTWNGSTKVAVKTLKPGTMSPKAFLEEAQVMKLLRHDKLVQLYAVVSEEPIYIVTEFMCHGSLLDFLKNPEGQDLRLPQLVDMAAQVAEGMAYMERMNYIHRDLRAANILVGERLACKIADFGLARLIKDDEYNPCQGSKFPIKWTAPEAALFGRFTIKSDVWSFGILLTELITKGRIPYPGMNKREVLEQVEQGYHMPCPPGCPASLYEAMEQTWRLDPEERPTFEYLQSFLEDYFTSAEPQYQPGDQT
Data set [11] addresses Tyrosine-protein kinase Lyn (Homo sapiens, UniProt P07948). Nature of the data set: Inhibition of human full length recombinant LYN by radiometric scintillation counting analysis.
The target of data set [12] is Proto-oncogene tyrosine-protein kinase Src (Homo sapiens, UniProt P12931). Kind of data set: Inhibition of human recombinant Src (1-530) by radiometric scintillation counting analysis.
Data set [13] concerns the target Tyrosine-protein kinase Yes (Homo sapiens, UniProt P07947). Kind of data set: Inhibition of human full length recombinant Yes by radiometric scintillation counting analysis.
The target in another data set is TXK (Homo sapiens, UniProt P42681). Nature of the data set: Inhibition of human recombinant Txk (256 to end) by radiometric scintillation counting analysis.
TXK, sequence (P42681 whole entry, looked up): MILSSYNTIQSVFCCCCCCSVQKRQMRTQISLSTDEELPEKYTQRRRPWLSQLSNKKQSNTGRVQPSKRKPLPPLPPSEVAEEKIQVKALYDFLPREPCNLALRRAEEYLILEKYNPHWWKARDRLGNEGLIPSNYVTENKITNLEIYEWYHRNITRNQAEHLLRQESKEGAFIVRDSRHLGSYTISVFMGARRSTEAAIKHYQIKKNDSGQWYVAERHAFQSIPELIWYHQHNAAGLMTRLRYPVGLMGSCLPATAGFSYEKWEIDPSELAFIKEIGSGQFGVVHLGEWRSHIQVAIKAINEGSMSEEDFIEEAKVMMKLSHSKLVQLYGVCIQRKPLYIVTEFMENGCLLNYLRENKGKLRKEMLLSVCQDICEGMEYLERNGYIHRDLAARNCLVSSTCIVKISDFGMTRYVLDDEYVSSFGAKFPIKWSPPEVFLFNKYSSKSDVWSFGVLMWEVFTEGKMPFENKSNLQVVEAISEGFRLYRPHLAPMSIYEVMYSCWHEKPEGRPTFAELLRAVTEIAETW
Data set [14] deals with Tyrosine-protein kinase ABL1 (Homo sapiens, UniProt P00519). Kind of data set: Inhibition of human recombinant ABL1 using ATP/Ulight-TK peptide incubated for 15 mins.
For data set [15], the target named is T1, Macrophage colony-stimulating factor 1 receptor. Kind of data set: Inhibition of human recombinant CSF1R using ATP/Ulight-TK peptide at 50 nM incubated for 15 mins.
In data set [16] the target is RAC-alpha serine/threonine-protein kinase (Homo sapiens) (UniProt P31749). Nature of the data set: Inhibition of human recombinant PKBalpha at 500 nM radiometric scintillation counting analysis relative to control.
RAC-alpha serine/threonine-protein kinase (Homo sapiens), sequence (P31749 whole entry): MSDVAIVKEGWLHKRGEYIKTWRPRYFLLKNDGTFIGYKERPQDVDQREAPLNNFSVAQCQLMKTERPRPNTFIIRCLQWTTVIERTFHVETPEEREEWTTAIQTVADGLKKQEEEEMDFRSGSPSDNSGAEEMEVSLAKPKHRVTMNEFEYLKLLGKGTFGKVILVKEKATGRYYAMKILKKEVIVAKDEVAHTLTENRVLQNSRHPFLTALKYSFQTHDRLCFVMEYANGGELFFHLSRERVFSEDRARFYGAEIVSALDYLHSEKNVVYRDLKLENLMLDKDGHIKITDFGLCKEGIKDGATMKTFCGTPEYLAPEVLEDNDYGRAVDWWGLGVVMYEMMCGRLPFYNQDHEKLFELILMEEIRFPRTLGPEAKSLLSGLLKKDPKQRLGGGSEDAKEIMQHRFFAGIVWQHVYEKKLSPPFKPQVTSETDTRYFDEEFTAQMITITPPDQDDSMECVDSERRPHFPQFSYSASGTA

Tyrosine-protein kinase Yes, sequence (P07947 whole entry): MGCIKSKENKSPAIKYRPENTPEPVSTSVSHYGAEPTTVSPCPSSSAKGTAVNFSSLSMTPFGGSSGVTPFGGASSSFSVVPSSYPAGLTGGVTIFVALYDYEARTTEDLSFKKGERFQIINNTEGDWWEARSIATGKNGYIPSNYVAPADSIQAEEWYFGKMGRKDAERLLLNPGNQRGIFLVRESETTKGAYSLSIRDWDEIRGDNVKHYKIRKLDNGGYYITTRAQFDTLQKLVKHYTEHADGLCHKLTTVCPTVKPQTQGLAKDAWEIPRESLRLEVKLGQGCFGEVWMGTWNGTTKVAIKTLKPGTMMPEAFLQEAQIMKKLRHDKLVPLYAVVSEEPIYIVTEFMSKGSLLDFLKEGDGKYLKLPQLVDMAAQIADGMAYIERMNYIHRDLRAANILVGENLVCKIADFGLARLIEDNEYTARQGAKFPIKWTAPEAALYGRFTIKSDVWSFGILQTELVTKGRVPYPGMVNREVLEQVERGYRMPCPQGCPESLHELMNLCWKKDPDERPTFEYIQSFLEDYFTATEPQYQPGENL
Tyrosine-protein kinase Lyn, sequence (P07948 whole entry): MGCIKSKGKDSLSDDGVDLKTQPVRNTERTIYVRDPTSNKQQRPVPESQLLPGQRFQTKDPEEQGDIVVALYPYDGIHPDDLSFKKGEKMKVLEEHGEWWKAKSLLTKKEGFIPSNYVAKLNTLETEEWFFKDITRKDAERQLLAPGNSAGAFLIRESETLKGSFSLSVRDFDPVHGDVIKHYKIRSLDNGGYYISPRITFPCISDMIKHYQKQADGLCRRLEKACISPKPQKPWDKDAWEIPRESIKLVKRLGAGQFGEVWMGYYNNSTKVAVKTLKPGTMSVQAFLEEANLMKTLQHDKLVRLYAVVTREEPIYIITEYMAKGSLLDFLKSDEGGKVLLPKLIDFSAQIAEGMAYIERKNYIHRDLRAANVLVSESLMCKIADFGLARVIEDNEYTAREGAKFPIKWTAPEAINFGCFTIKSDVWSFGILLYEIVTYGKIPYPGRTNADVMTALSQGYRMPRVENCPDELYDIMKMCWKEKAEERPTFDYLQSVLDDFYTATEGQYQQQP

In the case of `Cc1ccc(C(=O)Nc2cc(C(F)(F)F)cc(C(F)(F)F)c2)cc1C#Cc1cc(-c2cnn(C)c2)cnc1N`, the half-maximal inhibitory concentration (IC50) in data set [1] is 0.056 µM; in [2], 0.009 µM; in [4], 0.048 µM; in data set [9], 0.056 µM; in data set [10] it was 0.041 µM; in data set [11], 0.009 µM. The IC50 in [12] came to 0.012 µM; in data set [13] it was 0.095 µM; at TXK, 0.185 µM; in data set [14], 0.022 µM; in data set [15] it was 0.048 µM. The selectivity ratio in data set [3] worked out at 148. For the same molecule, the inhibition at 1 µM in the data set with RBL-2H3 came out at 144%. Also, the inhibition in [5] is 9%; in data set [6] it was 27%; in data set [7], 3%; in data set [8], -1%.
With `Cc1ccc(C(=O)Nc2ccc(Cl)cc2Cl)cc1C#Cc1cc(-c2cnn(C)c2)cnc1N`, the IC50 in data set [1] is 0.307 µM; in data set [2] it was 0.057 µM; in data set [9], above 1 µM; in data set [10] it was above 1 µM; in [11], 0.007 µM; in data set [12] it was 0.163 µM. Also, the IC50 in [13] was above 1 µM; at TXK, above 1 µM; in data set [14], 0.007 µM; in [15] it was 0.011 µM. Further, the inhibition in data set [5] is 6%; in data set [6], 8%; in [7], 9%; in data set [8], 3%; in [16] it was 2%.
Consider `Cc1ccc(C(=O)Nc2ccc(OC(F)(F)F)cc2)cc1C#Cc1cc(-c2cnn(C)c2)cnc1N`, for which, in data set [3], the selectivity ratio was 16.3. Moreover, the IC50 in data set [4] stood at 0.022 µM. Besides, the inhibition at 1 µM in the data set on RBL-2H3 came out at 144%. Also, in [16], the inhibition is -5%.

Usually IC50 stands for the midpoint of a concentration-inhibition curve. The term inhibition denotes the change of the read-out against control, counted positive when it falls.
